Results taken from publication PMC8222254, “Self-assembly of an anion receptor with metal-dependent kinase inhibition and potent in vitro anti-cancer properties” (Nature Communications, 2021).
Where “and” joins values, the source holds several entries; their conditions need not be identical. Identical values can stand only once.

Legend:
Test in all cases: Kinase inhibition screen, cell-free 33P ATP assay at 10 μM
Type in all cases: biochemical
[1] = target: 140 purified human kinases (Homo sapiens, UniProt P05129); conditions: PKCγ
Procedure, shortened: (§1)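 Each complex tested in duplicate at 10 μM; cell-free radiometric assay using ^33P ATP on purified enzymes. Hits mapped by HGNC symbol onto the kinome tree.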

[2] = target: 140 purified human kinases (Homo sapiens, UniProt Q9HBH9)
Sequence of 140 purified human kinases (Homo sapiens, UniProt Q9HBH9) (Q9HBH9 whole entry): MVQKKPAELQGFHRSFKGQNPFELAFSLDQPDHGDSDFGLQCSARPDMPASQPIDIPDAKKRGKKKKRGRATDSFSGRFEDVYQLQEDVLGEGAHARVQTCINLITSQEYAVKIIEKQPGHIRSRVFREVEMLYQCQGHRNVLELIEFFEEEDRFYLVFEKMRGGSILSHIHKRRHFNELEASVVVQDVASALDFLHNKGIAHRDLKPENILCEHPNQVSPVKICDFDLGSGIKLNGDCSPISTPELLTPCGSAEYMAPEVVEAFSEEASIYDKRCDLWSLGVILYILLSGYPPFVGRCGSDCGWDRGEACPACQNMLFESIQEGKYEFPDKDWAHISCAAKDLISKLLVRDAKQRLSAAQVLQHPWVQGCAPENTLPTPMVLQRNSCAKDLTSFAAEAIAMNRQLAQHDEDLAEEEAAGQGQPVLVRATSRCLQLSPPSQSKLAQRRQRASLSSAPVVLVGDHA
Procedure, shortened: as §1

[3] = target: T1, 140 purified human kinases (Homo sapiens, UniProt Q8TD08)
T1 sequence (Q8TD08 1-544): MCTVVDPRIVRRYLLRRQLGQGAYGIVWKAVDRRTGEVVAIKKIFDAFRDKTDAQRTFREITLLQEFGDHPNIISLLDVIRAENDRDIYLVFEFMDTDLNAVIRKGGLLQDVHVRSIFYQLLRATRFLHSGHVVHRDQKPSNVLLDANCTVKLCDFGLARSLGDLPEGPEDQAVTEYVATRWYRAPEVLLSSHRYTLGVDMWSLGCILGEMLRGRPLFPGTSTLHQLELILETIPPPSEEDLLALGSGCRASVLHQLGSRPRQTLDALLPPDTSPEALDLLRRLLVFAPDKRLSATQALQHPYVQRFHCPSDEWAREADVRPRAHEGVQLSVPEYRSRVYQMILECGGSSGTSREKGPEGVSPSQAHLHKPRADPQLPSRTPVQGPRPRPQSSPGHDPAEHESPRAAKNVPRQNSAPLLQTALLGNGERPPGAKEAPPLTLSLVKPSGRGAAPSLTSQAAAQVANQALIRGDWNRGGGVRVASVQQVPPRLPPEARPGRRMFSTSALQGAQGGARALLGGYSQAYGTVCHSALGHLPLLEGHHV
Procedure, shortened: as §1

[4] = target: T2, 140 purified human kinases (Homo sapiens, UniProt O14965); conditions: Aurora A
T2 sequence (O14965 1-403): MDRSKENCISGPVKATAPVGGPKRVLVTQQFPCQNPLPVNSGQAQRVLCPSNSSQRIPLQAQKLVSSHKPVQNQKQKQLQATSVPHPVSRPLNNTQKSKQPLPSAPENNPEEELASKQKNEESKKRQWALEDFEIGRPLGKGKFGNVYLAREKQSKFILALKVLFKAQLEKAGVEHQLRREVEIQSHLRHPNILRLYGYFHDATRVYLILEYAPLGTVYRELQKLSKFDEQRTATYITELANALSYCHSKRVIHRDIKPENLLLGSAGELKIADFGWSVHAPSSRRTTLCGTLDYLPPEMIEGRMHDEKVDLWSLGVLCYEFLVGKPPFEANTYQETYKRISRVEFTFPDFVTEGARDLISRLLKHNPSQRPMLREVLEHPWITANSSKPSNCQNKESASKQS
Procedure, shortened: as §1

[5] = target: 140 purified human kinases (Homo sapiens, UniProt Q14680); conditions: MELK
Sequence of 140 purified human kinases (Homo sapiens, UniProt Q14680) (Q14680 whole entry): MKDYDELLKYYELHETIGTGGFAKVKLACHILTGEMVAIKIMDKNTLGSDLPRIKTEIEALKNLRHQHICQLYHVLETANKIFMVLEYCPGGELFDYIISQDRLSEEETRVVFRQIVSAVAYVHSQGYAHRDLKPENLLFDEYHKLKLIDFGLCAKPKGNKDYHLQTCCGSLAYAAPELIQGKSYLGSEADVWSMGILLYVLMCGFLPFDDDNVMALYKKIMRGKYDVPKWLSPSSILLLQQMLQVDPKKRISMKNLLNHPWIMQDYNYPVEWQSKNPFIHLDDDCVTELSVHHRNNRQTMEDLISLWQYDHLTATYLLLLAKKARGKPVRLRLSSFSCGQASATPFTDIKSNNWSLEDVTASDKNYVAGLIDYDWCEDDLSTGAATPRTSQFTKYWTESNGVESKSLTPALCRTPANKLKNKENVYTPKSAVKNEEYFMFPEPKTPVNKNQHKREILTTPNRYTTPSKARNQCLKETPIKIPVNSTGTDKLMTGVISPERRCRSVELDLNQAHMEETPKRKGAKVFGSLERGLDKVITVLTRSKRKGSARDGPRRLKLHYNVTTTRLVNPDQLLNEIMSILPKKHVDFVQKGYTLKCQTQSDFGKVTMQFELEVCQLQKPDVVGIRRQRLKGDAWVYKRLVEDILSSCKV
Procedure, shortened: as §1

[6] = target: T3, 140 purified human kinases (Homo sapiens, UniProt Q15831)
T3 sequence (Q15831 1-433): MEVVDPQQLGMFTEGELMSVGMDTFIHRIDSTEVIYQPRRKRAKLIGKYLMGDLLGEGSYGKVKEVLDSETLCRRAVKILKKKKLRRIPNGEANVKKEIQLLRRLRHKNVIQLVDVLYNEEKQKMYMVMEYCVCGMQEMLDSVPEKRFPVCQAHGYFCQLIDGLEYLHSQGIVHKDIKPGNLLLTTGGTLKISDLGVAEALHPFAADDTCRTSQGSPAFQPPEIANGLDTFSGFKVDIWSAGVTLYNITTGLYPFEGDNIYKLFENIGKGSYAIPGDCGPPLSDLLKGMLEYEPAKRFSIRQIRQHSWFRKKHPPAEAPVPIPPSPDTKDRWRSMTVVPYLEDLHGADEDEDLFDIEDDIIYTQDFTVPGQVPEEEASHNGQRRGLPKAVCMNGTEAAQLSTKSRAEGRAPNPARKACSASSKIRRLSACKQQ
Procedure, shortened: as §1

[7] = target: 140 purified human kinases (Homo sapiens, UniProt Q9Y6E0)
Sequence of 140 purified human kinases (Homo sapiens, UniProt Q9Y6E0) (Q9Y6E0 whole entry): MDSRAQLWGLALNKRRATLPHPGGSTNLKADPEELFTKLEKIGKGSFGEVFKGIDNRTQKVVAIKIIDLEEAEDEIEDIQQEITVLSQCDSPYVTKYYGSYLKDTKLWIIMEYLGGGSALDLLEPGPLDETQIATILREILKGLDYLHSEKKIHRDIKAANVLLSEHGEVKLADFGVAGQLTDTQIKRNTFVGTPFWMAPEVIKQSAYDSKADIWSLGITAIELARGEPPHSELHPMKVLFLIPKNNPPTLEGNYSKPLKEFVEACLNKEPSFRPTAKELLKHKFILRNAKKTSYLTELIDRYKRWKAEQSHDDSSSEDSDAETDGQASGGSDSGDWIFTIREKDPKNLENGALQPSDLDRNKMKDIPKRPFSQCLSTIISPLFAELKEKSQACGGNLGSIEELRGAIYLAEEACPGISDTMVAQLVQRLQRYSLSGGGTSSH
Procedure, shortened: as §1

[8] = target: 140 purified human kinases (Homo sapiens, UniProt Q15418)
Sequence of 140 purified human kinases (Homo sapiens, UniProt Q15418) (Q15418 whole entry): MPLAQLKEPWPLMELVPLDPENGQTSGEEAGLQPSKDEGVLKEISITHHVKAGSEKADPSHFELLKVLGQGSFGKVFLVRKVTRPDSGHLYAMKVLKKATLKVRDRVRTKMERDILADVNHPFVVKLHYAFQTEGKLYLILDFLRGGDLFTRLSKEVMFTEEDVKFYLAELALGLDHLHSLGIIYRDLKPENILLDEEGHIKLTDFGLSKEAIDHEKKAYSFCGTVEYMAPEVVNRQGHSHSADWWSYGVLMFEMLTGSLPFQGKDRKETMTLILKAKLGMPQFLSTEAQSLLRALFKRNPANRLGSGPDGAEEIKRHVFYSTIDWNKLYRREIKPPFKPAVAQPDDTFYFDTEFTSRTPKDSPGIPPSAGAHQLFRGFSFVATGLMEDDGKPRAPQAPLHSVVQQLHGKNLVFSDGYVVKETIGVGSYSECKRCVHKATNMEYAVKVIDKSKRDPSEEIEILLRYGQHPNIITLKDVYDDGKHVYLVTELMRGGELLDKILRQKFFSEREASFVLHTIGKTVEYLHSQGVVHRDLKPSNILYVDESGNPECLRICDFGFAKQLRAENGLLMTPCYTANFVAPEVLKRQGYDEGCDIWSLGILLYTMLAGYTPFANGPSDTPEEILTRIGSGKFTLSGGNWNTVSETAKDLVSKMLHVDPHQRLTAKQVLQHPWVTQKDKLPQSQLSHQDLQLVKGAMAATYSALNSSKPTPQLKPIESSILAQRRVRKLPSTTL
Procedure, shortened: as §1

[Cu+2].[Cu+2].[Cu+2].c1ccc(-c2csc(NCCN(CCNc3nc(-c4ccccn4)cs3)CCNc3nc(-c4ccccn4)cs3)n2)nc1.c1ccc(-c2csc(NCCN(CCNc3nc(-c4ccccn4)cs3)CCNc3nc(-c4ccccn4)cs3)n2)nc1 [[L2Cu3]6+]
% Inhibition Run 1 [1]: 58.1% | % Inhibition Run 2 [1]: 72% | % Inhibition, Mean [1]: 65% | mean % activity [1]: 35% | % activity ([1]; Run 1): 41.9% | % activity ([1]; Run 2): 28% | % Inhibition Run 1 ([2]; MNK2): 59.3% | % Inhibition Run 2 ([2]; MNK2): 57.8% | % Inhibition, Mean ([2]; MNK2): 59% | mean % activity ([2]; MNK2): 41% | % activity ([2]; MNK2, Run 1): 40.7% | % activity ([2]; MNK2, Run 2): 42.2% | % Activation, Mean value ([3]; ERK8): 27% | % Inhibition Run 1 ([3]; ERK8): -16.9% | % Inhibition Run 2 ([3]; ERK8): -37.3% | % Inhibition, Mean ([3]; ERK8): -27% | mean % activity ([3]; ERK8): 127% | % activity ([3]; ERK8, Run 1): 116.9% | % activity ([3]; ERK8, Run 2): 137.3% | % Activity Run 1 ([3]; ERK8, 10 µM): 116.90% | % Activity Run 2 ([3]; ERK8, 10 µM): 137.30% | % Inhibition Run 1 [4]: 30.9% | % Inhibition Run 2 [4]: 28.1% | % Inhibition, Mean [4]: 30% | mean % activity [4]: 71% | % activity ([4]; Run 1): 69.1% | % activity ([4]; Run 2): 71.9% | % Inhibition Run 1 [5]: 38.7% | % Inhibition Run 2 [5]: 33.3% | % Inhibition, Mean [5]: 36% | mean % activity [5]: 64% | % activity ([5]; Run 1): 61.3% | % activity ([5]; Run 2): 66.7% | % Inhibition Run 1 ([6]; LKB1): 22.9% | % Inhibition Run 2 ([6]; LKB1): 29.1% | % Inhibition, Mean ([6]; LKB1): 26% | mean % activity ([6]; LKB1): 74% | % activity ([6]; LKB1, Run 1): 77.1% | % activity ([6]; LKB1, Run 2): 70.9% | % Inhibition Run 1 ([7]; MST3): 9.9% | % Inhibition Run 2 ([7]; MST3): -5.7% | % Inhibition, Mean ([7]; MST3): 2% | mean % activity ([7]; MST3): 98% | % activity ([7]; MST3, Run 1): 90.1% | % activity ([7]; MST3, Run 2): 105.7% | % Inhibition Run 1 ([8]; RSK1): 96.7% | % Inhibition Run 2 ([8]; RSK1): 97% | % Inhibition, Mean ([8]; RSK1): 97% | mean % activity ([8]; RSK1): 3% | % activity ([8]; RSK1, Run 1): 3.3% | % activity ([8]; RSK1, Run 2): 3% | % Activity inhibition Mean ([8]; RSK1, 10 µM): 96.9% | % Activity inhibition Run 1 ([8]; RSK1, 10 µM): 96.7% | % Activity inhibition Run 2 ([8]; RSK1, 10 µM): 97% | % Activity remaining Run 1 ([8]; RSK1, 10 µM): 3.30% | % Activity remaining Run 2 ([8]; RSK1, 10 µM): 3.00%

CC(=O)[O-].CC(=O)[O-].CC(=O)[O-].CC(=O)[O-].CC(=O)[O-].CC(=O)[O-].[Zn+2].[Zn+2].[Zn+2].c1ccc(-c2csc(NCCN(CCNc3nc(-c4ccccn4)cs3)CCNc3nc(-c4ccccn4)cs3)n2)nc1.c1ccc(-c2csc(NCCN(CCNc3nc(-c4ccccn4)cs3)CCNc3nc(-c4ccccn4)cs3)n2)nc1 [[L2Zn3]6+]
% Inhibition, Mean [1]: 32% | % Inhibition, Run 1 / Run 2 [1]: 36% and 27% | mean % activity [1]: 68% | % activity ([1]; duplicate runs): 64% and 73% | % Inhibition, Mean ([2]; MNK2): 33% | % Inhibition, Run 1 / Run 2 ([2]; MNK2): 44% and 22% | mean % activity ([2]; MNK2): 67% | % activity ([2]; MNK2, duplicate runs): 57% and 78% | % Inhibition, Mean ([3]; ERK8): 15% | % Inhibition, Run 1 / Run 2 ([3]; ERK8): 15% | mean % activity ([3]; ERK8): 85% | % activity ([3]; ERK8, duplicate runs): 86% and 85% | % Inhibition, Mean [4]: 83% | % Inhibition, Run 1 / Run 2 [4]: 84% and 83% | mean % activity [4]: 17% | % Activity inhibition Mean ([4]; 10 µM): 83.5% | % Activity inhibition Run 1 ([4]; 10 µM): 84% | % Activity inhibition Run 2 ([4]; 10 µM): 83% | % Activity remaining Run 1 ([4]; 10 µM): 16% | % Activity remaining Run 2 ([4]; 10 µM): 17% | % activity ([4]; duplicate runs): 16% and 17% | % Inhibition, Mean [5]: 27% | % Inhibition, Run 1 / Run 2 [5]: 35% and 19% | mean % activity [5]: 73% | % activity ([5]; duplicate runs): 65% and 81% | % Activation, Mean value ([6]; LKB1): 9% | % Inhibition, Mean ([6]; LKB1): -9% | mean % activity ([6]; LKB1): 109% | % activity ([6]; LKB1, duplicate runs): 101% and 116% | % Inhibition, Mean ([7]; MST3): 0.4% | % Inhibition, Run 1 / Run 2 ([7]; MST3): -3.6% and 4.4% | mean % activity ([7]; MST3): 100% | % activity ([7]; MST3, duplicate runs): 104% and 96% | % Inhibition, Mean ([8]; RSK1): 73% | % Inhibition, Run 1 / Run 2 ([8]; RSK1): 76% and 70% | mean % activity ([8]; RSK1): 27% | % activity ([8]; RSK1, duplicate runs): 24% and 30%
